Measured values as given in ChEMBL document CHEMBL5214952, “Unique iminotetrahydroberberine-corbelled metronidazoles as potential membrane active broad-spectrum antibacterial agents” (Bioorg Med Chem Lett, 2022).
Converted amounts (≈) assume the structure as drawn. The source made the active and inactive calls. The calls are words filed in the database; no cut-off is given here.

Experiments:
Escherichia coli [1] = assay: Antibacterial activity against Escherichia coli ATCC 25922 assessed as inhibition of bacterial growth by CLSI based continuous dilution method; format: functional
Acinetobacter baumannii = assay: Antibacterial activity against Acinetobacter baumannii assessed as inhibition of bacterial growth by CLSI based continuous dilution method; format: functional
Pseudomonas aeruginosa [2] = assay: Antibacterial activity against Pseudomonas aeruginosa assessed as inhibition of bacterial growth by CLSI based continuous dilution method; format: functional
Klebsiella pneumoniae = assay: Antibacterial activity against Klebsiella pneumoniae assessed as inhibition of bacterial growth by CLSI based continuous dilution method; format: functional
Escherichia coli [3] = assay: Antibacterial activity against Escherichia coli assessed as inhibition of bacterial growth by CLSI based continuous dilution method; format: functional
Pseudomonas aeruginosa [4] = assay: Antibacterial activity against Pseudomonas aeruginosa ATCC 27853 assessed as inhibition of bacterial growth by CLSI based continuous dilution method; format: functional
Staphylococcus aureus [5] = assay: Antibacterial activity against Staphylococcus aureus assessed as inhibition of bacterial growth by CLSI based continuous dilution method; format: functional
Staphylococcus aureus [6] = assay: Antibacterial activity against Staphylococcus aureus ATCC 25923 assessed as inhibition of bacterial growth by CLSI based continuous dilution method; format: functional
Enterococcus faecalis = assay: Antibacterial activity against Enterococcus faecalis assessed as inhibition of bacterial growth by CLSI based continuous dilution method; format: functional
Staphylococcus aureus [7] = assay: Antibacterial activity against Staphylococcus aureus ATCC 29213 assessed as inhibition of bacterial growth by CLSI based continuous dilution method; format: functional
Staphylococcus aureus [8] = assay: Antibacterial activity against methicillin-resistant Staphylococcus aureus assessed as inhibition of bacterial growth by CLSI based continuous dilution method; format: functional
Aspergillus fumigatus = assay: Antifungal activity against Aspergillus fumigatus assessed as inhibition of fungal growth by CLSI based continuous dilution method; format: functional, organism-based
[9] = Cytotoxicity against human HepG2 cells assessed as reduction in cell viability; format: toxicity, cell-based
Pseudomonas aeruginosa [10] = assay: Potency index, ratio of norfloxacin MIC to test compound MIC for antibacterial activity against Pseudomonas aeruginosa assessed as inhibition of bacterial growth by CLSI based continuous dilution method; format: functional
Cell membrane [11] = assay: Disruption of membrane integrity in Pseudomonas aeruginosa assessed as increase in protein leakage by measuring reduction in fluorescence intensity at 0.5 to 8 times MIC incubated for 6 hrs by bradford assay
Cell membrane [12] = assay: Induction of outer membrane permeabilization in Pseudomonas aeruginosa assessed as increase in NPN uptake by measuring increase in fluorescence intensity at 0.5 to 8 times MIC by NPN-dye based fluorescence analysis; details: DDE = dose-dependent effect
Pseudomonas aeruginosa [13] = assay: Antibiofilm activity against Pseudomonas aeruginosa assessed as reduction in biofilm viability at 0.5 to 8 times MIC by crystal violet staining based assay; format: functional, organism-based; details: DDE = dose-dependent effect
[14] = Cytotoxicity against human HepG2 cells assessed as cell viability at 1 times MIC relative to control; format: toxicity, cell-based; details: read-out: Activity
Pseudomonas aeruginosa [15] = assay: Potency index, ratio of Metronidazole MIC to test compound MIC for antibacterial activity against Pseudomonas aeruginosa assessed as inhibition of bacterial growth by CLSI based continuous dilution method; format: functional
Cell membrane [16] = assay: Disruption of membrane integrity in Pseudomonas aeruginosa assessed as reduction in intact bacterial cells by measuring reduction in fluorescence intensity at 0.5 to 8 times MIC by calcein-AM dye based assay
Cell membrane [17] = assay: Induction of inner membrane permeabilization in Pseudomonas aeruginosa assessed as increase in PI uptake by measuring increase in fluorescence intensity at 0.5 to 8 times MIC by propidium iodide staining based fluorescence analysis; details: DDE = dose-dependent effect
Pseudomonas aeruginosa [18] = assay: Antibiofilm activity against Pseudomonas aeruginosa assessed as reduction in biofilm viability at 8 times MIC by crystal violet staining based assay relative to control; format: functional
Pseudomonas aeruginosa [19] = assay: Potency index, ratio of Berberine MIC to test compound MIC for antibacterial activity against Pseudomonas aeruginosa assessed as inhibition of bacterial growth by CLSI based continuous dilution method; format: functional
Pseudomonas aeruginosa [20] = assay: Induction of […] membrane potential depolarization in Pseudomonas aeruginosa assessed as fold increase in fluorescence intensity at 8 times MIC by DiSC35 dye based fluorescence assay; format: functional
Cell membrane [21] = assay: Disruption of membrane integrity in Pseudomonas aeruginosa assessed as increase in nucleic acid leakage by measuring fold reduction in optical density at 8 times MIC by absorption spectrometry analysis
Cell membrane [22] = assay: Induction of cell membrane permeabilization in Pseudomonas aeruginosa assessed as increase in number of cells with damaged membranes by measuring increase in red fluorescence at 1 times MIC measured for 10 mins by PI staining based fluorescence analysis

Row | Structure (SMILES) | MIC (Escherichia coli [1]) | MIC (Acinetobacter baumannii) | MIC (Pseudomonas aeruginosa [2]) | MIC (Klebsiella pneumoniae) | MIC (Escherichia coli [3]) | MIC (Pseudomonas aeruginosa [4]) | MIC (Staphylococcus aureus [5]) | MIC (Staphylococcus aureus [6]) | MIC (Enterococcus faecalis) | MIC (Staphylococcus aureus [7]) | MIC (Staphylococcus aureus [8]) | Activity (Aspergillus fumigatus) | also measured
1 | Cc1ncc([N+](=O)[O-])n1CCO [METRONIDAZOLE] | 1500 µM (≈ 256 µg/mL) | 1500 µM (≈ 256 µg/mL) | 1500 µM (≈ 256 µg/mL) | 374 µM (≈ 64 µg/mL) | 1500 µM (≈ 256 µg/mL) | 1500 µM (≈ 256 µg/mL) | 1500 µM (≈ 256 µg/mL) | 1500 µM (≈ 256 µg/mL) | 748 µM (≈ 128 µg/mL) | 1500 µM (≈ 256 µg/mL) | 1500 µM (≈ 256 µg/mL) |  | 
2 | CCCCCCO/N=C/c1cc(OC)c(OCC(O)Cn2c([N+](=O)[O-])cnc2C)c2c1CC1c3cc4c(cc3CCN1C2)OCO4 (stereo unspecified) | 805 µM (≈ 512 µg/mL) | 805 µM (≈ 512 µg/mL) | 805 µM (≈ 512 µg/mL) | 805 µM (≈ 512 µg/mL) | 805 µM (≈ 512 µg/mL) | 805 µM (≈ 512 µg/mL) | 805 µM (≈ 512 µg/mL) | 50 µM (≈ 31.8 µg/mL) | 805 µM (≈ 512 µg/mL) | 805 µM (≈ 512 µg/mL) | 805 µM (≈ 512 µg/mL) | Active | 
3 | CCCCCO/N=C/c1cc(OC)c(OCC(O)Cn2c([N+](=O)[O-])cnc2C)c2c1CC1c3cc4c(cc3CCN1C2)OCO4 (stereo unspecified) | 206 µM (≈ 128 µg/mL) | 206 µM (≈ 128 µg/mL) | 824 µM (≈ 512 µg/mL) | 824 µM (≈ 512 µg/mL) | 824 µM (≈ 512 µg/mL) | 824 µM (≈ 512 µg/mL) | 824 µM (≈ 512 µg/mL) | 824 µM (≈ 512 µg/mL) | 824 µM (≈ 512 µg/mL) | 824 µM (≈ 512 µg/mL) | 824 µM (≈ 512 µg/mL) | Active | 
4 | COc1cc(/C=N/O)c2c(c1OCC(O)Cn1c([N+](=O)[O-])cnc1C)CN1CCc3cc4c(cc3C1C2)OCO4 (stereo unspecified) | 29 µM (≈ 16 µg/mL) | 58 µM (≈ 32 µg/mL) | 116 µM (≈ 64 µg/mL) | 464 µM (≈ 256 µg/mL) | 15 µM (≈ 8.27 µg/mL) | 58 µM (≈ 32 µg/mL) | 58 µM (≈ 32 µg/mL) | 58 µM (≈ 32 µg/mL) | 29 µM (≈ 16 µg/mL) | 232 µM (≈ 128 µg/mL) | 116 µM (≈ 64 µg/mL) | Active | 
5 | COc1ccc2cc3[n+](cc2c1OC)CCc1cc2c(cc1-3)OCO2 [BERBERINE] | 380 µM | 190 µM | 1520 µM | 190 µM | 380 µM | 380 µM | 380 µM | 380 µM | 380 µM | 190 µM | 761 µM |  | 
6 | CCO/N=C/c1cc(OC)c(OCC(O)Cn2c([N+](=O)[O-])cnc2C)c2c1CC1c3cc4c(cc3CCN1C2)OCO4 (stereo unspecified) | 883 µM (≈ 512 µg/mL) | 883 µM (≈ 512 µg/mL) | 883 µM (≈ 512 µg/mL) | 883 µM (≈ 512 µg/mL) | 883 µM (≈ 512 µg/mL) | 883 µM (≈ 512 µg/mL) | 883 µM (≈ 512 µg/mL) | 883 µM (≈ 512 µg/mL) | 883 µM (≈ 512 µg/mL) | 883 µM (≈ 512 µg/mL) | 883 µM (≈ 512 µg/mL) | Active | 
7 | COc1cc(/C=N/OCc2ccccc2)c2c(c1OCC(O)Cn1c([N+](=O)[O-])cnc1C)CN1CCc3cc4c(cc3C1C2)OCO4 (stereo unspecified) | 99 µM (≈ 63.5 µg/mL) | 24 µM (≈ 15.4 µg/mL) | 24 µM (≈ 15.4 µg/mL) | 24 µM (≈ 15.4 µg/mL) | 24 µM (≈ 15.4 µg/mL) | 199 µM (≈ 128 µg/mL) | 49 µM (≈ 31.4 µg/mL) | 24 µM (≈ 15.4 µg/mL) | 49 µM (≈ 31.4 µg/mL) | 49 µM (≈ 31.4 µg/mL) | 49 µM (≈ 31.4 µg/mL) | Active | IC50 [9]: > 50 µM; Ratio (Pseudomonas aeruginosa [10]): 2; Activity (Cell membrane [11]): Active; Activity (Cell membrane [12]): Dde; Activity (Pseudomonas aeruginosa [13]): Dde; viability at 1 times MIC [14]: > 80%; Ratio (Pseudomonas aeruginosa [15]): 62; Activity (Cell membrane [16]): Active; Activity (Cell membrane [17]): Dde; Activity (Pseudomonas aeruginosa [18]): 46.4%; Ratio (Pseudomonas aeruginosa [19]): 63; fold change (FC) (Pseudomonas aeruginosa [20]): 4; fold change (FC) (Cell membrane [21]): 0.1; Activity (Cell membrane [22]): Active
